# Results published in patent US12102089B2, “Method for inactivating mold spores” (DSM IP ASSETS B.V., priority 2017, dated 2024).
# Tested on: Aspergillus niger ATCC 9029AA
# Experiment: Heat treatment of Aspergillus niger ATCC 9029AA spores in ice tea with natamycin, visual growth
# Type: cell-based
# Set-up: key to growth or no growth: growth (+); no growth (−)
# Description: Commercially available ice tea (Lipton, peach flavor, non-carbonated, 1.5 L) was adjusted to high water hardness by adding 1 ml of a solution of 39 g CaCl2 and 27 g MgCl2 added to 934 g water. ⅓ of this ice tea preparation (the pH of which was 3.15) was left as-such, ⅓ of the preparation was enriched with 5 ppm natamycin and ⅓ of the preparation was enriched with 10 ppm natamycin. Samples of 5 ml were made from each preparation in 15 ml sterile plastic tubes. Of each preparation 8 samples were pre-heated to the desired pasteurization temperature using a water bath. Temperatures used were RT, 60, 65, 70, 75, 80, 85 and 90° C. When the desired temperature was reached, 100 μl of a 2500 spores/ml spore suspension of Aspergillus niger ATCC 9029AA was added to each tube. Subsequently, the samples were kept for 30 seconds at the temperature in question in the water bath. Next, the samples were cooled on ice to a temperature of 25° C. Samples were incubated at 25° C. and visually examined for growth (formation of mold flakes or turbidity) for two months. Additionally, samples were enumerated according to ISO protocol 21527-1.2008 on day 0 (before heat treatment) and day 1 (after heat treatment) to count immediate loss of viability. Enumeration was repeated after 1 month when samples remained free from visual mold growth; most counts were reduced to <10 after heat treatment, but were still able to grow. For the results, see Table 1.
smiles,measurement,setting,value
C[C@@H]1C/C=C/C=C/C=C/C=C/[C@H](O[C@@H]2O[C@H](C)[C@@H](O)[C@H](N)[C@@H]2O)C[C@@H]2O[C@](O)(C[C@@H](O)C[C@H]3O[C@@H]3/C=C/C(=O)O1)C[C@H](O)[C@H]2C(=O)O [natamycin],growth or no growth,"60°C, 5 ppm, day 1",−
same,growth or no growth,"60°C, 5 ppm, day 2",−
same,growth or no growth,"60°C, 5 ppm, day 3",−
same,growth or no growth,"60°C, 5 ppm, day 4",−
same,growth or no growth,"60°C, 5 ppm, day 5",−
same,growth or no growth,"60°C, 5 ppm, day 6",−
same,growth or no growth,"60°C, 5 ppm, day 7",+
same,growth or no growth,"60°C, 5 ppm, day 8",+
same,growth or no growth,"60°C, 5 ppm, day 9",+
same,growth or no growth,"60°C, 5 ppm, day 10",+
same,growth or no growth,"60°C, 5 ppm, day 11",+
same,growth or no growth,"60°C, 5 ppm, day 12",+
same,growth or no growth,"60°C, 5 ppm, day 13",+
same,growth or no growth,"60°C, 5 ppm, day 14",+
same,growth or no growth,"60°C, 5 ppm, day 15",+
same,growth or no growth,"60°C, 5 ppm, day 16",+
same,growth or no growth,"60°C, 5 ppm, day 17",+
same,growth or no growth,"60°C, 5 ppm, day 50",+
same,growth or no growth,"60°C, 10 ppm, day 1",−
same,growth or no growth,"60°C, 10 ppm, day 2",−
same,growth or no growth,"60°C, 10 ppm, day 3",−
same,growth or no growth,"60°C, 10 ppm, day 4",−
same,growth or no growth,"60°C, 10 ppm, day 5",−
same,growth or no growth,"60°C, 10 ppm, day 6",−
same,growth or no growth,"60°C, 10 ppm, day 7",−
same,growth or no growth,"60°C, 10 ppm, day 8",−
same,growth or no growth,"60°C, 10 ppm, day 9",−
same,growth or no growth,"60°C, 10 ppm, day 10",+
same,growth or no growth,"60°C, 10 ppm, day 11",+
same,growth or no growth,"60°C, 10 ppm, day 12",+
same,growth or no growth,"60°C, 10 ppm, day 13",+
same,growth or no growth,"60°C, 10 ppm, day 14",+
same,growth or no growth,"60°C, 10 ppm, day 15",+
same,growth or no growth,"60°C, 10 ppm, day 16",+
same,growth or no growth,"60°C, 10 ppm, day 17",+
same,growth or no growth,"60°C, 10 ppm, day 50",+
same,growth or no growth,"65°C, 5 ppm, day 1",−
same,growth or no growth,"65°C, 5 ppm, day 2",−
same,growth or no growth,"65°C, 5 ppm, day 3",−
same,growth or no growth,"65°C, 5 ppm, day 4",−
same,growth or no growth,"65°C, 5 ppm, day 5",−
same,growth or no growth,"65°C, 5 ppm, day 6",−
same,growth or no growth,"65°C, 5 ppm, day 7",−
same,growth or no growth,"65°C, 5 ppm, day 8",−
same,growth or no growth,"65°C, 5 ppm, day 9",−
same,growth or no growth,"65°C, 5 ppm, day 10",−
same,growth or no growth,"65°C, 5 ppm, day 11",−
same,growth or no growth,"65°C, 5 ppm, day 12",−
same,growth or no growth,"65°C, 5 ppm, day 13",−
same,growth or no growth,"65°C, 5 ppm, day 14",−
same,growth or no growth,"65°C, 5 ppm, day 15",−
same,growth or no growth,"65°C, 5 ppm, day 16",−
same,growth or no growth,"65°C, 5 ppm, day 17",−
same,growth or no growth,"65°C, 5 ppm, day 50",−
same,growth or no growth,"65°C, 10 ppm, day 1",−
same,growth or no growth,"65°C, 10 ppm, day 2",−
same,growth or no growth,"65°C, 10 ppm, day 3",−
same,growth or no growth,"65°C, 10 ppm, day 4",−
same,growth or no growth,"65°C, 10 ppm, day 5",−
same,growth or no growth,"65°C, 10 ppm, day 6",−
same,growth or no growth,"65°C, 10 ppm, day 7",−
same,growth or no growth,"65°C, 10 ppm, day 8",−
same,growth or no growth,"65°C, 10 ppm, day 9",−
same,growth or no growth,"65°C, 10 ppm, day 10",−
same,growth or no growth,"65°C, 10 ppm, day 11",−
same,growth or no growth,"65°C, 10 ppm, day 12",−
same,growth or no growth,"65°C, 10 ppm, day 13",−
same,growth or no growth,"65°C, 10 ppm, day 14",−
same,growth or no growth,"65°C, 10 ppm, day 15",−
same,growth or no growth,"65°C, 10 ppm, day 16",−
same,growth or no growth,"65°C, 10 ppm, day 17",−
same,growth or no growth,"65°C, 10 ppm, day 50",−
same,germination,"70° C., in the presence of natamycin",no germination occurred
same,growth or no growth,"70°C, 5 ppm, day 1",−
same,growth or no growth,"70°C, 5 ppm, day 2",−
same,growth or no growth,"70°C, 5 ppm, day 3",−
same,growth or no growth,"70°C, 5 ppm, day 4",−
same,growth or no growth,"70°C, 5 ppm, day 5",−
same,growth or no growth,"70°C, 5 ppm, day 6",−
same,growth or no growth,"70°C, 5 ppm, day 7",−
same,growth or no growth,"70°C, 5 ppm, day 8",−
same,growth or no growth,"70°C, 5 ppm, day 9",−
same,growth or no growth,"70°C, 5 ppm, day 10",−
same,growth or no growth,"70°C, 5 ppm, day 11",−
same,growth or no growth,"70°C, 5 ppm, day 12",−
same,growth or no growth,"70°C, 5 ppm, day 13",−
same,growth or no growth,"70°C, 5 ppm, day 14",−
same,growth or no growth,"70°C, 5 ppm, day 15",−
same,growth or no growth,"70°C, 5 ppm, day 16",−
same,growth or no growth,"70°C, 5 ppm, day 17",−
same,growth or no growth,"70°C, 5 ppm, day 50",−
same,growth or no growth,"70°C, 10 ppm, day 9",−
same,growth or no growth,"70°C, 10 ppm, day 10",−
same,growth or no growth,"70°C, 10 ppm, day 11",−
same,growth or no growth,"70°C, 10 ppm, day 12",−
same,growth or no growth,"70°C, 10 ppm, day 13",−
same,growth or no growth,"70°C, 10 ppm, day 14",−
same,growth or no growth,"70°C, 10 ppm, day 15",−
same,growth or no growth,"70°C, 10 ppm, day 16",−
same,growth or no growth,"70°C, 10 ppm, day 17",−
same,growth or no growth,"70°C, 10 ppm, day 50",−
same,germination,"RT and 60° C., 5 ppm natamycin",delayed germination
same,germination,"RT and 60° C., 10 ppm natamycin",longer delay
